Experiments:
Test in all cases: cell viability relative to DMSO (100%) and bortezomib (0%) controls; higher = more viable / less sensitive
Conditions in all cases: 72 h
[1] = test system: HAP1 HDAC1 KO + HDAC1 H141A transgene
Procedure: (§1)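 HAP1 cells (wildtype, HDAC1/2/3 catalytically inactive H>A mutant lines in wildtype or knockout background, HDAC3 KO, or wildtype pre-treated 6 h with 1 uM MS-275 or JQ12) were seeded onto compound-containing 384-well plates with an 8-point 1:3 dose series. ATP was read by CellTiter-Glo after 72 h. Viability is normalised to plate DMSO wells (100%) and bortezomib positive-control wells (0%) after outlier removal. Duplicate screen.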

[2] = test system: HAP1 WT + HDAC3 H135A transgene
Procedure: as §1

[3] = test system: HAP1 HDAC2 KO + HDAC2 H142A transgene
Procedure: as §1

[4] = test system: HAP1 HDAC3 KO
Procedure: as §1

[5] = test system: HAP1 WT + HDAC2 H142A transgene
Procedure: as §1

[6] = test system: HAP1 wildtype + MS-275 1 uM (6 h pretreatment)
Procedure: as §1

[7] = test system: HAP1 wildtype
Procedure: as §1

[8] = test system: HAP1 WT + HDAC1 H141A transgene
Procedure: as §1

[9] = test system: HAP1 wildtype + JQ12 1 uM (6 h pretreatment)
Procedure: as §1

[10] = test system: HAP1 HDAC3 KO + HDAC3 H135A transgene
Procedure: as §1

CNC(=O)c1ccccc1Sc1ccc2c(/C=C/c3ccccn3)n[nH]c2c1 [Axitinib]
cell viability [%]
Conditions	[1]	[2]	[3]	[4]	[5]	[6]	[7]	[8]	[9]	[10]
0.0123 µM	112	114	113	120	130	114	119	105	106	121
0.037 µM	94.3	90.2	94	99.1	82.1	92.3	95.8	90.6	76.9	87
0.111111111 µM	93	96.9	86.6	87.1	88.7	93.5	121	93.5	82.1	94
0.333333333 µM	84.5	121	107	102	101	101	102	94.8	109	101
1 µM	155	147	137	172	140	113	115	121	102	129
3 µM	54	88.11	23.4	48.9	46.4	67.8	72	21.8	57.83	34.8
9 µM	26.6	101	-0.112	79.4	16.3	52.5	62	5.34	48.6	36.3
27 µM	36	102	27.5	50.5	46.8	65.8	92.3	25.9	72.2	50.1

Cn1cc(-c2ccc(S(=O)(=O)n3ccc(/C=C/C(=O)Nc4ccccc4N)c3)cc2)cn1 [4SC-202]
cell viability [%]
Conditions	[1]	[2]	[3]	[4]	[5]	[6]	[7]	[8]	[9]	[10]
0.0123 µM	137	140	125	120	141	168	105	125	123	130
0.037 µM	106	89.7	108	95.7	78.14	112	88.7	85.5	113	85.68
0.111111111 µM	109	128	157	127	135	121	120	110	133	109
0.333333333 µM	111	133	93.36	122.3	117	123	98.9	117	98.5	104
1 µM	7.79	6.41	82.3	11.2	-0.0563	3.53	22.3	-2.58	10.9	-3.64
3 µM	-53.5	-13.8	-4.75	-10.7	-10.7	-1.84	-0.806	-21.1	-3.08	-11
9 µM	-23.1	-10.1	-2.31	-10.9	-11.2	-6.4	-6.67	-15.7	-6.3	-9.81
27 µM	14.2	-6.44	-4.84	-5.87	-5.99	0.166	2.64	-7.2	-3.68	-4.35

COc1cc(Nc2ncc3c(n2)-c2ccc(Cl)cc2C(c2c(F)cccc2OC)=NC3)ccc1C(=O)O [Alisertib]
cell viability [%]
Conditions	[1]	[2]	[3]	[4]	[5]	[6]	[7]	[8]	[9]	[10]
0.00617 µM	95.2	92.9	103	94.9	86.2	107	103	101	79.6	103
0.0185 µM	122	103	92.1	131	115	128	136	95.7	100	121
0.0556 µM	109	123	103	117	99.5	108	100	95.2	95.3	112
0.166666667 µM	52.1	147	31.8	70	62.6	43.2	110	71.2	34.2	70.2
0.5 µM	53.3	105	51	111	49.8	72.44	96.5	37.1	51.9	79.4
1.5 µM	38.4	101	54.5	114	21.9	61.6	83.2	15.1	51.7	82.3
4.5 µM	33.1	90.6	36.2	103	17.5	53.2	74.2	22.1	54.4	71.6
13.5 µM	19.6	108	21.8	116	12.7	46.8	73.4	2.6	52	89

Nc1ncn([C@H]2C[C@H](O)[C@@H](CO)O2)c(=O)n1 [decitabine]
cell viability [%]
Conditions	[1]	[2]	[3]	[4]	[5]	[6]	[7]	[8]	[9]	[10]
0.0309 µM	106	105	105.4	96.5	102	107	104	95.3	92.9	100
0.0926 µM	117	117	104	103	109	82.5	96.6	96.2	98	111
0.277777778 µM	93.4	116	89.47	125	80.5	71.3	110	68.1	72.8	115
0.833333333 µM	51.5	153	37.5	155	44.3	40.43	141	27.2	50.9	148
2.5 µM	24.3	119.46	10.8	144	5.61	9.68	115	-11.5	15.9	148
7.5 µM	0.764	49.5	5.27	112	4.31	9.13	60.8	0.523	1.97	96.2
22.5 µM	5.07	58.5	-5.41	123	0.159	2.79	50.1	-11.1	3.44	114
67.5 µM	19.6	61.2	9.97	147	7.07	10.8	47.2	1.73	1.41	108
